According to patent US11135202B2, “Thiazolide compounds for treating viral infections” (Romark Laboratories L.C., priority 2016, dated 2021):
Converted amounts (≈) assume the structure as drawn.

Tests used:
[1] = system: respiratory syncytial virus; test: Study RM08-3002 clinical trial, time to alleviation of symptoms, RSV patients; conditions: human, in vivo
Sendai virus (SeV) [2] = test: SeV virus yield in AGMK cells (HA titration, plaque assay; MTT viability; cytopathic effect); type: cell-based
RSV-A2 = RSV-A2 yield in infected HeLa cells (virus-induced syncytia counted by immunofluorescence); type: cell-based
Sendai virus (SeV) [3] = type: cell-based

CC(=O)Oc1ccccc1C(=O)Nc1ncc([N+](=O)[O-])s1 [nitazoxanide]
reduction in duration of symptoms at the median vs placebo [1]: 76 h
protection of infected cells from virus-induced damage (Sendai virus (SeV) [2]; SeV 3 PFU/cell, 10 μg/ml, 24 h p.i.): cytoprotective
inhibition of SeV replication (Sendai virus (SeV) [2]; at concentrations non-toxic for the host cells): effective
IC50 (RSV-A2; human respiratory syncytial virus, HeLa cells, MOI 1 TCID50/cell, syncytia at 48 hours p.i., non cytotoxic doses, read-out: IC50, antiviral activity against RSV-A2): 0.3 µg/mL (≈ 0.976 µM)
IC90 (RSV-A2; human respiratory syncytial virus, HeLa cells, MOI 1 TCID50/cell, syncytia at 48 hours p.i., non cytotoxic doses, read-out: IC90, antiviral activity against RSV-A2): 0.8 µg/mL (≈ 2.6 µM)
effect of treatment against RSV (RSV-A2; in vitro): effective against RSV
inhibition of SeV in A549 cells (Sendai virus (SeV) [3]): also effective
